The record followed here is ChEMBL document CHEMBL1201862, “PubChem BioAssay data set” (2004).

Molecules are shown by their SMILES. Calls of active or inactive are those of the source. Rule as the data show it, for most assays here: actives have a measured EC50 and inactives only a lower limit.

The target of assay [1] is T1, Apoptotic protease-activating factor 1 (Homo sapiens, UniProt O14727).
T1 sequence (O14727 whole entry): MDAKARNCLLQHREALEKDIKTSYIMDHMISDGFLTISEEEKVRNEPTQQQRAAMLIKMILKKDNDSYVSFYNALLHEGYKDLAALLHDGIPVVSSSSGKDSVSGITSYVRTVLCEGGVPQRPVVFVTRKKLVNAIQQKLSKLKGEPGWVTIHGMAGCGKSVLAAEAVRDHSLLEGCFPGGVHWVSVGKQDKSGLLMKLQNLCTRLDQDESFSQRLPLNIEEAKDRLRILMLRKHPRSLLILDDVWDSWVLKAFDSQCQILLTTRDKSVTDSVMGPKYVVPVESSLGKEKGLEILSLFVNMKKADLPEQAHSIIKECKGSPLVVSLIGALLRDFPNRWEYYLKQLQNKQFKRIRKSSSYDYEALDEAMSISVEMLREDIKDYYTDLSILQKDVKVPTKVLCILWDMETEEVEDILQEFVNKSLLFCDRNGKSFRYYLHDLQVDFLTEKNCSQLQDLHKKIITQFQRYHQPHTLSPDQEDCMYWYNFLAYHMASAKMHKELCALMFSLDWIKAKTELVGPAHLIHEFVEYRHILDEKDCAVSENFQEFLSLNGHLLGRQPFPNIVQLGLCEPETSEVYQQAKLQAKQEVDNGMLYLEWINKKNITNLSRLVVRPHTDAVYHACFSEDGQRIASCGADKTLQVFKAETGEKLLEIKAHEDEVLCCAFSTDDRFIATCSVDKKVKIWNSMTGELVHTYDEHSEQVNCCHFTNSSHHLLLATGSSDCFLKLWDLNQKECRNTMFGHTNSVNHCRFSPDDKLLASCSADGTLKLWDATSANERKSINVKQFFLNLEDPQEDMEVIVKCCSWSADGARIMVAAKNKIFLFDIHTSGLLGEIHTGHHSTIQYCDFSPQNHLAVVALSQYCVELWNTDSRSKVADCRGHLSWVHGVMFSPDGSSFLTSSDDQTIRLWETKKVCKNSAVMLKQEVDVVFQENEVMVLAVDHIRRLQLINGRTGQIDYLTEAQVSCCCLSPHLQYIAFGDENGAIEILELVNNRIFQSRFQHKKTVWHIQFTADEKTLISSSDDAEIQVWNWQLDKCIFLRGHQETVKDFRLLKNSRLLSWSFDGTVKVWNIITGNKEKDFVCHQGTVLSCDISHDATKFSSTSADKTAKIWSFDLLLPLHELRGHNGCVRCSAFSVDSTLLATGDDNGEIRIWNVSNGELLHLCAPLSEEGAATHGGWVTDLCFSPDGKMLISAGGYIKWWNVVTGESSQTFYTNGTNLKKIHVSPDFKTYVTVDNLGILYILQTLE
Format: functional.

The target in assay [2] is T2, Serine/threonine-protein phosphatase (Candida dubliniensis (strain CD36 / CBS 7987 / NCPF 3949 / NRRLY-17841) (Yeast), UniProt B9W6M3).
T2 sequence (B9W6M3 whole entry): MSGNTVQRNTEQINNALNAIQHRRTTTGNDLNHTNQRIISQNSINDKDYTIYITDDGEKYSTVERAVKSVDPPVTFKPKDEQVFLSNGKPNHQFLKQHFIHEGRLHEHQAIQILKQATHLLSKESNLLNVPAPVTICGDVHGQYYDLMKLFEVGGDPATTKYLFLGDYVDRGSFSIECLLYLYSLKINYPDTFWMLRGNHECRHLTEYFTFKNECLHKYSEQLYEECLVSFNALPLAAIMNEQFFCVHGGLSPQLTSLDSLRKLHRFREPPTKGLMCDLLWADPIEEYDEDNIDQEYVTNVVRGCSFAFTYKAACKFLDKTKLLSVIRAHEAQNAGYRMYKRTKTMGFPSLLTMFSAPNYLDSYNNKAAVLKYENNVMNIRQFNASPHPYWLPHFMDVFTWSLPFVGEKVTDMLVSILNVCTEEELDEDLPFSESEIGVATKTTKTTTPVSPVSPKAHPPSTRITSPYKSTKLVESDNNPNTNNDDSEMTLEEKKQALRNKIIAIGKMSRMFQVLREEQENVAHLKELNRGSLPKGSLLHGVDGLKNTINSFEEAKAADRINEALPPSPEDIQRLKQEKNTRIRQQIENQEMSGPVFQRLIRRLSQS
Kind of assay: blockers of CaCl2-induced CDRE-lacZ signaling – S. cerevisiae, luminescence, secondary, dose response (AID 2388).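 Also: yeast reporter cells carrying a calcineurin-responsive lacZ construct stimulated with calcium chloride; luminescent beta-galactosidase reporter signal in whole cells rather than isolated phosphatase activity; potency for inhibition where a drop in reporter signal means calcineurin blockade.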 Format: functional, cell-based.

Assay [3] deals with ATP-dependent molecular chaperone HSP82 (Candida albicans (strain WO-1) (Yeast), UniProt C4YTQ8). Kind of assay: steroid-induced GRE reporter decrease in yeast – S. cerevisiae, luminescence, Hsp90 inhibitor project, dose response (AID 2400).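 Also: beta-galactosidase luminescence from glucocorticoid response element reporter as proxy for Hsp90 function; inhibitor potency where signal loss means Hsp90 inhibition.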 Format: functional, cell-based.
Assay [4] can be described thus: NIH-3T3 fibroblast cytotoxicity, dose response, cytotoxicity control, cell-based, fluorescence, Alamar Blue, secondary assay (AID 2327).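 Also: NIH-3T3 mouse fibroblasts cultured with fluconazole at 8 µg/mL.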 Format: functional. For orientation: Alamar Blue is a resazurin reagent that responds to reducing activity.
A short description of assay [5]: fluconazole-exposed Candida albicans growth modulators – fluorescence, retest, confirmation (AID 2467). Format: functional, cell-based.
A further assay addresses Genome polyprotein (dengue virus type 2, UniProt P29990). Description: flavivirus cap methylation enzyme inhibition – biochemical, confirmation dose response, primary screen (AID 588689). Format: functional.
Another assay concerns Vero. Kind of assay: viability of Vero cells under compound – cytotoxicity control for flavivirus capping enzyme inhibitors (AID 588742). Format: functional. The settings on record: Chlorocebus sabaeus.
A short description of assay [6]: viability loss in THP-1 monocytes – THP-1 cells, cytotoxicity control for Vif-APOBEC3G degradation inhibitor project, dose response (AID 1117359). The settings on record: THP-1. Format: functional.
A further assay deals with HEK293. Kind of assay: cells. Format: functional, cell-based. The note with it: Homo sapiens.
Assay [7] can be described thus: Luminescence Cell-Based Dose Confirmation HTS to Identify Inhibitors of Platelet Dense Granule Release. [Related pubchem assays: 1663 (Primary HTS), 1678 (Summary of Project)]. Format: functional.
Assay [8] has as its target T3, Nuclear receptor subfamily 0 group B member 1 (Homo sapiens, UniProt P51843).
T3 sequence (P51843 whole entry): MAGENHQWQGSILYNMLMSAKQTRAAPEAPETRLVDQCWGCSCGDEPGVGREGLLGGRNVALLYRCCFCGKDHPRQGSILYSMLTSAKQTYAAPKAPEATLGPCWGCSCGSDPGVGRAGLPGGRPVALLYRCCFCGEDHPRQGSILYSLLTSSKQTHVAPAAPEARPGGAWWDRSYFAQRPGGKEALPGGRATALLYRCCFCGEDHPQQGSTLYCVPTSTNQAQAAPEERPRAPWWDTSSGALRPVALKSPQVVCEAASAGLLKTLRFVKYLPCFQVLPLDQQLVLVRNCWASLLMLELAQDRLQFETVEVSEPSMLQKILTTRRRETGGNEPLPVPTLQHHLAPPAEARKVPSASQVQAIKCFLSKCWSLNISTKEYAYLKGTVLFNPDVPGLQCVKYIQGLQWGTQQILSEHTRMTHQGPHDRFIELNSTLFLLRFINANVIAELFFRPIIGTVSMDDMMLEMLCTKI
Description: Luminescence-based cell-based high throughput dose response assay for inhibitors of the orphan nuclear receptor subfamily 0, group B, member 1 (DAX1; NR0B1). [Related pubchem assays (depositor defined):AID504766, AID504790]. Format: functional.

Assay [9] concerns the target Luciferin 4-monooxygenase (Photinus pyralis, UniProt P08659). Description: inhibition of purified Photinus pyralis luciferase – biochemical, luminescence, dose response (AID 1891).
In assay [10] the test system is BJ. Kind of assay: cells. Format: functional, cell-based. The settings on record: Homo sapiens.
Assay [11] relates to BJ. Kind of assay: BJ-TERT-LT-ST fibroblast viability loss – cell-based, RAS-independent, luminescence, dose response (AID 1935).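 Also: BJ fibroblasts immortalized with TERT plus LT and ST oncogenes.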 Format: functional. The settings on record: Homo sapiens.
Assay [12] relates to BJ. Description: BJ-TERT fibroblast viability loss – cell-based, RAS-independent, luminescence, dose response (AID 1933). Format: functional. The note with it: Homo sapiens.
The subject of assay [13] is BJ. Description: growth inhibition of engineered Ras-driven BJ cells – cell-based, alamar blue fluorescence, cherrypicked samples, dose response (AID 2631).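 Also: confirmatory dose-response assay in RAS-dependent BJ fibroblasts engineered with TERT, LT and ST, with cytotoxicity read by fluorescence.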 Format: functional. The settings on record: Homo sapiens.
Assay [14] can be described thus: DRD fibroblast viability loss – cell-based, non-viral oncogenic, luminescence, dose response (AID 1934). Format: functional. The note with it: Homo sapiens.

ATP-dependent molecular chaperone HSP82, sequence (C4YTQ8 whole entry): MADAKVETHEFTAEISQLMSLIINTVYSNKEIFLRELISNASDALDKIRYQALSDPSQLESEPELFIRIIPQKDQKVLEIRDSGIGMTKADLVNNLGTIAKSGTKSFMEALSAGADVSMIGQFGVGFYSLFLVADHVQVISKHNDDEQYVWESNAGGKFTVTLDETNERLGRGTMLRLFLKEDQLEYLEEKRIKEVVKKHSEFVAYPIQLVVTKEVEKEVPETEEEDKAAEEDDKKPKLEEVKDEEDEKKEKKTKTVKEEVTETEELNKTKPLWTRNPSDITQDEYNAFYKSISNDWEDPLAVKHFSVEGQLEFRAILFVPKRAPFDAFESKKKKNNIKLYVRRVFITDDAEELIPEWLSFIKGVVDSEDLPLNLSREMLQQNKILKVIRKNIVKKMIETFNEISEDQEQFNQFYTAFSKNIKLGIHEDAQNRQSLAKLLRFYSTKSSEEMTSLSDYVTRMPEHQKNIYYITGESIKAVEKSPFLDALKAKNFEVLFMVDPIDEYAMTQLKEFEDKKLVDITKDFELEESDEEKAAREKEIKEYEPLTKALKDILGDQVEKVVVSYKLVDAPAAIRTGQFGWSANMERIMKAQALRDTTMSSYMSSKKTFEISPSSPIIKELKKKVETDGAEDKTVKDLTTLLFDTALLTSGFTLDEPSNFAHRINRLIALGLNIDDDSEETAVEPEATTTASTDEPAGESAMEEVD
Genome polyprotein, sequence (P29990 2492-3391 limits assumed): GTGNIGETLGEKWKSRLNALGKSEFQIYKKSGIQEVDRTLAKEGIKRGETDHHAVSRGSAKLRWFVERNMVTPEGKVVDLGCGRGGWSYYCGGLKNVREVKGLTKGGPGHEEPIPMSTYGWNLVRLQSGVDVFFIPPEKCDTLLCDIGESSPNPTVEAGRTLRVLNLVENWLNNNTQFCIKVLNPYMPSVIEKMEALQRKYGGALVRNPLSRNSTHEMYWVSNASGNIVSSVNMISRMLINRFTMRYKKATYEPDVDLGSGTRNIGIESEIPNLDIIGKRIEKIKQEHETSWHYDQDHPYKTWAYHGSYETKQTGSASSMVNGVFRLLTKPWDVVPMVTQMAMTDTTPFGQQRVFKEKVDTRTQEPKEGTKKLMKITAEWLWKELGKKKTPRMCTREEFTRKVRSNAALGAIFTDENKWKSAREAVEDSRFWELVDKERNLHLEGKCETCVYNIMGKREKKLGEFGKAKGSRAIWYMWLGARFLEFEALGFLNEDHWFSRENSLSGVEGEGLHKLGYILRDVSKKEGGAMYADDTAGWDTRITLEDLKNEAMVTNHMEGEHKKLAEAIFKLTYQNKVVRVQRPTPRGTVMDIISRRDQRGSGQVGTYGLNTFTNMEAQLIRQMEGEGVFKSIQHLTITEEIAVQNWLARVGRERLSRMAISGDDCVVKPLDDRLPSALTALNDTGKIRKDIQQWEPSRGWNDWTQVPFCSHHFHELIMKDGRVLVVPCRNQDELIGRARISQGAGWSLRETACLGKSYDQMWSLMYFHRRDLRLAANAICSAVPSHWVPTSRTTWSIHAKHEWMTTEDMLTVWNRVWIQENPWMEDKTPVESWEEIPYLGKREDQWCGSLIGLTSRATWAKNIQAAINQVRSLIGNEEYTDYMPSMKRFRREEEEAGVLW
Luciferin 4-monooxygenase, sequence (P08659 whole entry): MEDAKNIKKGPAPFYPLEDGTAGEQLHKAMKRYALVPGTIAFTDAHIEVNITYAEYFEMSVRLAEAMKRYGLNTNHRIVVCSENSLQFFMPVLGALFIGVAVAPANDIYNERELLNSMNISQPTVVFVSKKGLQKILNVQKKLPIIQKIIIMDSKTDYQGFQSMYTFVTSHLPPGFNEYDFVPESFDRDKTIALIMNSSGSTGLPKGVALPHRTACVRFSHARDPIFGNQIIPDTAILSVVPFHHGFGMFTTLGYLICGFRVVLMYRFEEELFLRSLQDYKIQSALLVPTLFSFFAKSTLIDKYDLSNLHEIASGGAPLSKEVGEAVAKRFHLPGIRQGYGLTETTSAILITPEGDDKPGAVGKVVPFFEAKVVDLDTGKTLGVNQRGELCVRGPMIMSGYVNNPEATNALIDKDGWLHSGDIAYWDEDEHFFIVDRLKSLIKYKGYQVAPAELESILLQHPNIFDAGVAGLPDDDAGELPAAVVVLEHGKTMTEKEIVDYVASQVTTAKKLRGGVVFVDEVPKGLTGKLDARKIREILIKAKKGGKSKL

Broadly, the IC50 is the concentration that gives 50% inhibition. With `Cc1nn2c(-c3ccncc3)nnc2c2ccccc12`, the IC50 in assay [1] is 5.15 µM (active).

A word on the EC50: it is the concentration giving half of the maximal effect. Turning to `CC(C)(C)c1ccc(Cc2nnc(S)nc2O)cc1`, the EC50 in assay [2] is 20.2 µM (active); in assay [3], 9.48 µM (active); in assay [4], > 160 µM (inactive); in [5], 0.368 µM (active).

As usually defined, the CC50 is the concentration at which the toxic effect on the cells reaches its halfway point. Regarding `O=C(/C(=N/N=C/c1ccc(O)c(O)c1O)c1ccccc1)c1ccccc1`, the IC50 on Genome polyprotein was 50.1 µM (active). The CC50 was 9.15 µM (active) in the assay on Vero and 16.6 µM (active) in assay [6]. The EC50 is > 180 µM (inactive) in assay [2], 5.97 µM (active) in [3], > 150 µM (inactive) in [4] and 4.04 µM (active) in assay [5].

As for `CCSc1nnc(NC(=O)C2CC2c2ccccc2)s1` (stereo unspecified), the IC50 (in the assay on HEK293; in assay [8]) was > 67.5 µM (inactive) throughout. The EC50 in [7] and in assay [9] was > 112 µM (not active) each time.

On to `CCOc1cccc(C(=O)NC2=NCCS2)c1`, for which the IC50 (with HEK293; in [8]) was > 67.5 µM (inactive) each time.

For `Cc1cc(C)c2c(N)c(C(=O)Nc3ccc(C)c(C)c3)sc2n1`, the IC50 (with HEK293; in assay [8]) was > 67.6 µM (inactive) each time.

For `Cc1cccc(OCC(=O)Nc2ccc(C(=O)NCc3cccnc3)cc2)c1`, the EC50 in the assay with BJ [10] is 8.97 µM (inconclusive); in the assay with BJ [11], > 150 µM (inconclusive); in the assay on BJ [12], > 150 µM (not active); in the assay with BJ [13], 17.3 µM (active); in assay [14], > 150 µM (not active).

As for `CN(C)/C=C(/C(=O)c1ccc(Cl)c(Cl)c1)c1nnnn1-c1ccccc1`, the IC50 (in the assay on HEK293; in assay [8]) was > 67.5 µM (inactive) each time.

`CC1=C(CC[C@@H](C)CO)O[C@H]2C[C@H]3[C@@H]4CC[C@H]5C[C@@H](O)CC[C@]5(C)[C@H]4CC(=O)[C@]3(C)[C@@H]12`: the EC50 in [2] was > 180 µM (inactive); in assay [3] it was > 150 µM (inactive); in assay [4], > 150 µM (inactive); in assay [5], 0.383 µM (active).
